Patent US20260083843A1, “IMMUNE CELLS TARGETING EPCAM AND MEDICAL USE THEREOF” (SUZHOU IMMUNOFOCO BIOTECHNOLOGY CO., LTD, priority 2022, published 2026)

System: MKN-45-luc
Assay: Abdominal cavity metastasis model of gastric cancer
Assay type: in vivo, NCG mice
Conditions: single dose of 1.5 mg/kg i.p., Day 0; FIG. 3
Procedure: To study whether EpCAM-CAR-T (the amino acid sequence of the chimeric antigen receptor of EpCAM-CAR-T is set forth in SEQ ID NO: 16) can clear abdominal metastatic tumors of gastric cancer and whether the chemotherapeutic drug docetaxel can enhance the efficacy of CAR-T, we constructed an abdominal cavity metastasis model of gastric cancer based on a gastric cancer cell line MKN-45-luc. Modeling: human gastric cancer cells MKN-45-luc were cultured in an RPMI-1640 culture medium with 10% FBS in an incubator at 37° C. with 5% CO2. Before continuous cell culturing for ten generations, the cells were inoculated into the abdominal cavity of mice, about 1.5×10^6 MKN-45-luc cells were resuspended in PBS, and inoculated into NCG mice by intraperitoneal injection in a volume of […]. Grouping and administration: 7 days after the inoculation, the growth of tumor cells in the abdominal cavity was detected using a small animal in vivo imaging fluorometer. The mice were randomly grouped according to the body weight and tumor size (fluorescence intensity), with 5 animals in each group, for a total of 6 groups. The day of grouping was defined as day 0.

With `CC(=O)O[C@@]12CO[C@@H]1C[C@H](O)[C@@]1(C)C(=O)[C@H](O)C3=C(C)[C@@H](OC(=O)[C@H](O)[C@@H](NC(=O)OC(C)(C)C)c4ccccc4)C[C@@](O)([C@@H](OC(=O)c4ccccc4)[C@H]21)C3(C)C` [docetaxel] the efficacy was “did not produce significant efficacy”.
